The values that follow come from patent US12673946B2, “Pyrimidin-4(3H)-one derivatives as TRPV4 antagonists” (RaQualia Pharma Inc., priority 2020, dated 2026).

pIC50: −log10 of the molar value.

This assay addresses T1, human TRPV4 (Homo sapiens, UniProt Q9HBA0).
T1 construct: host or cells: tetracycline-inducible Flp-In T-REx 293 cells
Nature of the assay: Hypotonicity-induced Ca2+ influx (Fluo-4, FDSS). It is filed as cell-based. A digest of the protocol: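 Flp-In T-REx 293 cells with tetracycline-induced human TRPV4, loaded with Fluo-4 for 60 min at 25 °C. Compound added 5 min before hypotonic mannitol/CaCl2 solution. Ca2+ signal recorded for 4.5 min on FDSS.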

[1] abbreviates: Flp-In T-REx 293 cells expressing human TRPV4, examples listed under heading 'Human IC50<50 nM'.
Where [2] appears, read: Flp-In T-REx 293 cells stably expressing human TRPV4, compounds listed by potency bin (<10 nM Tables 96-1/96-2, <3 nM Table 97).

T1 sequence (Q9HBA0 whole entry): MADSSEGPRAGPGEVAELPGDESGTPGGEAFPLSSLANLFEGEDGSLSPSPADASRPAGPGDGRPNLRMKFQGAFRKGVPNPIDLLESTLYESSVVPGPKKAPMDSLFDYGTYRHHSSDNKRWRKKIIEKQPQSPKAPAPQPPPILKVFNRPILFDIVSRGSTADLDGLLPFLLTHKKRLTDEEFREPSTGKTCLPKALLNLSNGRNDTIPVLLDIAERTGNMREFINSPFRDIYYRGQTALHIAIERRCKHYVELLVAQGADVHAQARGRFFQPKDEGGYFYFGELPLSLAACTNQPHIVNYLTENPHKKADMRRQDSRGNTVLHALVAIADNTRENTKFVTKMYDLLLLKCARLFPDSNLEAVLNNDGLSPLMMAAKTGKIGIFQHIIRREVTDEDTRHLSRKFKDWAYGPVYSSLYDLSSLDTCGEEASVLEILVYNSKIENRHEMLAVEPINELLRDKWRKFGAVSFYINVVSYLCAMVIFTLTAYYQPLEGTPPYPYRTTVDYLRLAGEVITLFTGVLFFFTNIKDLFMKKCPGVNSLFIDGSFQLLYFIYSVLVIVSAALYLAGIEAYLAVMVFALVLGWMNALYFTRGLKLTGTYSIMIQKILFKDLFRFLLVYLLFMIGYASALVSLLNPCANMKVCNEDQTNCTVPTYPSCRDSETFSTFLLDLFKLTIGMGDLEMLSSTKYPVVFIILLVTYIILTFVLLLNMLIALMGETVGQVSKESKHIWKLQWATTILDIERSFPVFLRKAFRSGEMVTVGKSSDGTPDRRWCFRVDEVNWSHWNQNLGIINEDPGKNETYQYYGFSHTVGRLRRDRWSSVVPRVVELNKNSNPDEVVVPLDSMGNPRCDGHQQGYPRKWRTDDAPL

One may read the pIC50 as −log10 of the IC50, conventionally taken in molar units. In the case of `O=C(Cc1cccc(S(F)(F)(F)(F)F)c1)N1CCCc2nc(C3(c4ccccc4)CC3)[nH]c(=O)c2C1` [17-31], the pIC50 runs as follows: under setting [1], above 7.30; under setting [2], above 8.00.

Turning to `O=C(C(O)c1cccc(S(F)(F)(F)(F)F)c1)N1CCCc2nc(C3(c4cccc(F)c4)CC3)[nH]c(=O)c2C1` (stereo not shown) [17-32], the pIC50 was above 7.30 under setting [1] and above 8.00 under setting [2].

Compound `O=C(C(O)c1cccc(Oc2ccccc2)c1)N1CCCc2nc(C3(c4cccc(Cl)c4)CC3)[nH]c(=O)c2C1` (stereo not shown) [17-33] gave a pIC50 under setting [1] above 7.30 and a pIC50 under setting [2] above 8.00.

In the case of `O=C(C(O)c1cccc(-c2ccc(Cl)cc2)c1)N1CCCc2nc(C3(c4cccc(F)c4)CC3)[nH]c(=O)c2C1` (stereo not shown) [17-34], the pIC50 reads like this: under setting [1], above 7.30; under setting [2], above 8.00.

Consider `O=C([C@H](O)c1cccc(F)c1F)N1CCCc2nc(C3(c4cccc(Cl)c4)CC3)[nH]c(=O)c2C1` [17-35], for which the pIC50 is, setting by setting: under setting [1], above 7.30; under setting [2], above 8.00.

`O=C([C@H](O)c1cccc(C(F)(F)F)c1)N1CCCc2nc(C3(c4cccc(F)c4)CC3)[nH]c(=O)c2C1` [17-36]: the pIC50 is above 7.30 under setting [1] and above 8.00 under setting [2].

On to `O=C([C@H](O)c1cccc(C(F)(F)F)c1)N1CCCc2nc(C3(c4ccccc4)CC3)[nH]c(=O)c2C1` [17-37], for which the pIC50 runs as follows: under setting [1], above 7.30; under setting [2], above 8.00.

Consider `O=C(C(O)c1cccc(SC(F)(F)F)c1)N1CCCc2nc(C3(c4ccccc4)CC3)[nH]c(=O)c2C1` (stereo not shown) [17-38], for which the negative logarithm of the IC50 (pIC50) is, setting by setting: under setting [1], above 7.30; under setting [2], above 8.00.

As for `CC(C)c1cccc(C2(c3nc4c(c(=O)[nH]3)CN(C(=O)C(O)c3cccc(S(F)(F)(F)(F)F)c3)CCC4)CC2)c1` (stereo not shown) [17-39], the pIC50 was above 7.30 under setting [1] and above 8.00 under setting [2].

Turning to `O=C(C(O)c1cccc(Oc2cccc(C(F)(F)F)c2)c1)N1CCCc2nc(C3(c4cccc(Cl)c4)CC3)[nH]c(=O)c2C1` (stereo not shown) [17-40], the pIC50 is above 7.30 under setting [1] and above 8.00 under setting [2].

In the case of `O=C(C(O)c1cccc(S(F)(F)(F)(F)F)c1)N1CCCc2nc(C3(c4ccccc4)CC3)[nH]c(=O)c2C1` (stereo not shown) [17-41], the pIC50 under setting [1] was above 7.30 and the pIC50 under setting [2] is above 8.00.

On to `O=C(C(O)c1cccc(Cl)c1F)N1CCCc2nc(C3(c4ccccc4)CC3)[nH]c(=O)c2C1` (stereo not shown) [17-42], for which the pIC50 under setting [1] was above 7.30.

Turning to `O=C(C(O)c1ccccc1C(F)(F)F)N1CCCc2nc(C3(c4cccc(Cl)c4)CC3)[nH]c(=O)c2C1` (stereo not shown) [17-43], under setting [1], the pIC50 was above 7.30.

`CC(C)c1cccc(C2(c3nc4c(c(=O)[nH]3)CN(C(=O)C(O)c3cccc(SC(F)(F)F)c3)CCC4)CC2)c1` (stereo not shown) [17-44] gave a pIC50 under setting [1] above 7.30.

Regarding `CC(C)c1cccc(C2(c3nc4c(c(=O)[nH]3)CN(C(=O)C(O)c3cccc(-c5cccc(C(F)(F)F)c5)c3)CCC4)CC2)c1` (stereo not shown) [17-45], the pIC50 under setting [1] is above 7.30.

Take `CC(C(=O)N1CCCc2nc(C3(c4ccccc4)CC3)[nH]c(=O)c2C1)c1cccc(C(F)(F)F)c1` (stereo not shown) [17-46]: the pIC50 under setting [1] was above 7.30.

Take `CC(C)(C)c1cccc(C(O)C(=O)N2CCCc3nc(C4(c5ccccc5)CC4)[nH]c(=O)c3C2)c1` (stereo not shown) [17-47]: under setting [1], the negative-log IC50 (pIC50) was above 7.30.

As for `O=C(C(O)c1cccc(-c2cccc(F)c2)c1)N1CCCc2nc(C3(c4cccc(F)c4)CC3)[nH]c(=O)c2C1` (stereo not shown) [17-48], under setting [1], the pIC50 was above 7.30.

The compound `CC(C)c1cccc(C2(c3nc4c(c(=O)[nH]3)CN(C(=O)C(O)c3cccc(-c5cccc(OC(F)(F)F)c5)c3)CCC4)CC2)c1` (stereo not shown) [17-49] had a pIC50 under setting [1] above 7.30.

As to `O=C(C(O)c1cccc(OCC(F)(F)F)c1)N1CCCc2nc(C3(c4cccc(Cl)c4)CC3)[nH]c(=O)c2C1` (stereo not shown) [17-50], under setting [1], the pIC50 is above 7.30.

`O=C(Cc1cccc(C(F)(F)F)c1)N1CCCc2nc(C3(c4ccccc4)CC3)[nH]c(=O)c2C1` [17-51] showed a pIC50 under setting [1] above 7.30.

`O=C(C(O)c1cccc(Oc2ccccc2)c1)N1CCCc2nc(C3(c4cccc(F)c4)CC3)[nH]c(=O)c2C1` (stereo not shown) [17-52] gave a pIC50 under setting [1] above 7.30.

Under setting [1], `O=C(C(O)c1cccc(C2CC2)c1)N1CCCc2nc(C3(c4cccc(F)c4)CC3)[nH]c(=O)c2C1` (stereo not shown) [17-53] showed a negative logarithm of the IC50 (pIC50) above 7.30.

Turning to `COc1cccc(C2(c3nc4c(c(=O)[nH]3)CN(C(=O)[C@H](O)c3cccc(C(F)(F)F)c3)CCC4)CC2)c1` [17-54], under setting [1], the pIC50 is above 7.30.

With `O=C(C(O)c1cccc(Br)c1)N1CCCc2nc(C3(c4ccccc4)CC3)[nH]c(=O)c2C1` (stereo not shown) [17-55], the pIC50 under setting [1] was above 7.30.

Consider `Cc1cccc(C(O)C(=O)N2CCCc3nc(C4(c5ccccc5)CC4)[nH]c(=O)c3C2)c1F` (stereo not shown) [17-56], for which, under setting [1], the pIC50 was above 7.30.

Compound `O=C([C@H](O)c1cccc(Cl)c1)N1CCCc2nc(C3(c4cccc(F)c4)CC3)[nH]c(=O)c2C1` [17-57] showed a negative logarithm of the IC50 (pIC50) under setting [1] above 7.30.

Turning to `O=C(C(O)c1cccc(C2CC2)c1)N1CCCc2nc(C3(c4ccccc4)CC3)[nH]c(=O)c2C1` (stereo not shown) [17-58], the pIC50 under setting [1] is above 7.30.

As to `CC(C)c1cccc(C(O)C(=O)N2CCCc3nc(C4(c5ccccc5)CC4)[nH]c(=O)c3C2)c1` (stereo not shown) [17-59], the pIC50 under setting [1] was above 7.30.

Under setting [1], `O=C([C@H](O)c1cccc(F)c1F)N1CCCc2nc(C3(c4cccc(F)c4)CC3)[nH]c(=O)c2C1` [17-60] showed a pIC50 above 7.30.

Under setting [1], `O=C(C(O)c1cc(Cl)cc(Cl)c1)N1CCCc2nc(C3(c4ccccc4)CC3)[nH]c(=O)c2C1` (stereo not shown) [17-61] had a pIC50 above 7.30.

For the compound `O=C([C@H](O)c1cccc(C(F)(F)F)c1)N1CCCc2nc(C3(c4cccc(Oc5ccccc5)c4)CC3)[nH]c(=O)c2C1` [17-72], the pIC50 was above 7.30 under setting [1] and above 8.00 under setting [2].

Take `O=C([C@H](O)c1cccc(Cl)c1)N1CCCc2nc(C3(c4cccc(Oc5ccccc5)c4)CC3)[nH]c(=O)c2C1` [17-73]: the negative-log IC50 (pIC50) is above 7.30 under setting [1] and above 8.52 under setting [2].

For the compound `O=C(C(O)c1cccc(-c2cccc(C(F)(F)F)c2)c1)N1CCCc2c(nc(C3(c4ccccc4)CC3)[nH]c2=O)C1` (stereo not shown) [17-74], the negative logarithm of the IC50 (pIC50) by setting is: under setting [1], above 7.30; under setting [2], above 8.00.

For the compound `O=C(C(O)c1cccc(Oc2cccc(C(F)(F)F)c2)c1)N1CCCc2nc(C3(c4ccccc4)CC3)[nH]c(=O)c2C1` (stereo not shown) [17-75], the pIC50 was above 7.30 under setting [1] and above 8.52 under setting [2].

Regarding `O=C(C(O)c1cccc(OCc2ccccc2)c1)N1CCCc2nc(C3(c4ccccc4)CC3)[nH]c(=O)c2C1` (stereo not shown) [17-76], the pIC50 runs as follows: under setting [1], above 7.30; under setting [2], above 8.00.

Regarding `O=C([C@H](O)c1cccc(Br)c1)N1CCCc2nc(C3(c4ccccc4)CC3)[nH]c(=O)c2C1` [17-77], the pIC50 was above 7.30 under setting [1] and above 8.00 under setting [2].

In the case of `O=C(Cc1ccccc1-c1ccccc1)N1CCCc2nc(C3(c4cccc(Cl)c4)CC3)[nH]c(=O)c2C1` [17-80], the pIC50 under setting [1] was above 7.30.

`O=C(C(O)c1cccc(Cl)c1F)N1CCCc2nc(C3(c4cccc(Oc5ccccc5)c4)CC3)[nH]c(=O)c2C1` (stereo not shown) [17-81] gave a pIC50 under setting [1] above 7.30 and a negative logarithm of the IC50 (pIC50) under setting [2] above 8.00.

As to `O=C(Cc1ccccc1OCc1ccccc1)N1CCCc2nc(C3(c4cccc(Cl)c4)CC3)[nH]c(=O)c2C1` [17-82], the pIC50 is above 7.30 under setting [1] and above 8.00 under setting [2].

For the compound `O=C(Cc1cccc(-c2ccccc2)c1)N1CCCc2nc(C3(c4cccc(Cl)c4)CC3)[nH]c(=O)c2C1` [17-84], the pIC50 was above 7.30 under setting [1] and above 8.00 under setting [2].

The compound `O=C(C(O)c1cccc(Oc2ccccc2)c1)N1CCCc2nc(C3(c4ccccc4)CC3)[nH]c(=O)c2C1` (stereo not shown) [17-85] gave a pIC50 under setting [1] above 7.30.

Take `O=C([C@H](O)c1cccc(Cl)c1)N1CCCc2nc(C3(c4cccc(Br)c4)CC3)[nH]c(=O)c2C1` [17-87]: the pIC50 by setting is: under setting [1], above 7.30; under setting [2], above 8.00.

`CC(C(=O)N1CCCc2nc(C3(c4cccc(Cl)c4)CC3)[nH]c(=O)c2C1)c1cccc(C(F)(F)F)c1` (stereo not shown) [17-88] gave a pIC50 under setting [1] above 7.30 and a pIC50 under setting [2] above 8.00.

For `CC(C(=O)N1CCCc2nc(C3(c4cccc(F)c4)CC3)[nH]c(=O)c2C1)c1cccc(C(F)(F)F)c1` (stereo not shown) [17-89], the pIC50 runs as follows: under setting [1], above 7.30; under setting [2], above 8.00.

With `O=C([C@H](O)c1cccc(C(F)(F)F)c1)N1CCCc2nc(C3(c4cccc(OCc5ccccc5)c4)CC3)[nH]c(=O)c2C1` [17-90], the pIC50 reads like this: under setting [1], above 7.30; under setting [2], above 8.00.

In the case of `O=C([C@H](O)c1cccc(Cl)c1)N1CCCc2nc(C3(c4cccc(OCc5ccccc5)c4)CC3)[nH]c(=O)c2C1` [17-91], the pIC50 under setting [1] is above 7.30 and the pIC50 under setting [2] is above 8.52.

For the compound `O=C([C@@H](O)c1cccc(C(F)(F)F)c1)N1CCCc2nc(C3(c4cccc(Cl)c4)CC3)[nH]c(=O)c2C1` [17-93], under setting [1], the pIC50 was above 7.30.

On to `O=C([C@H](O)c1cccc(C(F)(F)F)c1)N1CCCc2nc(C3(c4cccc(-c5ccc6ncsc6c5)c4)CC3)[nH]c(=O)c2C1` [17-94], for which the pIC50 runs as follows: under setting [1], above 7.30; under setting [2], above 8.00.

As to `O=C([C@H](O)c1cccc(C(F)(F)F)c1)N1CCCc2nc(C3(c4cccc(-c5cnc(-c6ccccc6)o5)c4)CC3)[nH]c(=O)c2C1` [17-95], the pIC50 runs as follows: under setting [1], above 7.30; under setting [2], above 8.00.

Take `O=C([C@H](O)c1cccc(C(F)(F)F)c1)N1CCCc2nc(C3(c4cccc(-c5ccc6sccc6c5)c4)CC3)[nH]c(=O)c2C1` [17-96]: the pIC50 reads like this: under setting [1], above 7.30; under setting [2], above 8.00.

For `O=C([C@H](O)c1cccc(C(F)(F)F)c1)N1CCCc2nc(C3(c4cccc(-c5nc6ccccc6s5)c4)CC3)[nH]c(=O)c2C1` [17-97], the pIC50 reads like this: under setting [1], above 7.30; under setting [2], above 8.00.

`O=C([C@H](O)c1cccc(C(F)(F)F)c1)N1CCCc2nc(C3(c4cccc(-c5cnc(-c6ccccc6)s5)c4)CC3)[nH]c(=O)c2C1` [17-98] showed a pIC50 under setting [1] above 7.30 and a pIC50 under setting [2] above 8.52.

`O=C(Cc1cccc(-c2cccc(C(F)(F)F)c2)c1)N1CCCc2nc(C3(c4cccc(Cl)c4)CC3)[nH]c(=O)c2C1` [17-99]: the pIC50 is, setting by setting: under setting [1], above 7.30; under setting [2], above 8.00.
